Test results published in patent publication US10179777B2, “3-(1H-benzimidazol-2-yl)-1H-pyridin-2-one derivatives” (MERCK PATENT GMBH, priority 2015, dated 2019).
Structures can show the parent of a compound that is named as a salt.

Experiments:
[1] = target: T1, ALK2 (GST-modified kinase domain ACVR1(145-509)) (Homo sapiens, UniProt Q04771); test: ALK2 kinase inhibition assay (33P-ATP filter binding, Reaction Biology); type: biochemical; settings: casein substrate, 20 μM ATP (Km ATP), 120 min ambient temperature
T1 construct: N-terminally GST-modified kinase domain ACVR1(145-509); GST (N)
T1 sequence (Q04771 145-509): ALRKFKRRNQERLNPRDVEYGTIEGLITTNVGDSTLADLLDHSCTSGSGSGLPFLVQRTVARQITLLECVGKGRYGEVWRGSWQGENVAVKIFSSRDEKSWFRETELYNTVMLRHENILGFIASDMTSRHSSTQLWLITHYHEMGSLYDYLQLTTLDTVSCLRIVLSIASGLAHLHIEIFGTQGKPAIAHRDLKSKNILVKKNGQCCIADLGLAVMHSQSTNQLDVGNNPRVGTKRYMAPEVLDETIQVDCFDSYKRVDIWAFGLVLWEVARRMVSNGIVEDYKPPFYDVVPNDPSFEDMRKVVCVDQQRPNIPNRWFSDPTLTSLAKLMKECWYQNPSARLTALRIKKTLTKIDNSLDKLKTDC
Method: (§1) The protein sequences of the kinases targeted and accompanying information are described in publically available data base http://www.uniprot.org/uniprot/for ALK1 www.uniprot.org/uniprot/P37023, for ALK2 www.uniprot.org/uniprot/Q04771 and for ALK5 www.uniprot.org/uniprot/P36897. IC50 determination of the novel inhibitors described was performed at Reaction Biology Corp., Malvern, Pa., USA, with assay conditions open to public at www.reactionbiology.com/webapps/site/KinaseDetail.aspx?page=Kinases&id=1, and www.reactionbiology.com/webapps/site/Kinase Assay Protocol.aspx. In addition, they were specified previously in Anastassiadis et al. Nat. Biotechnol. 29(11): 1039-1045. doi:10.1038/nbt.2017.
A2) ALK2 Kinase Inhibition Assay
(§2) was performed similar to procedure A1 with N-terminally GST-modified kinase domain ACVR1(145-509) and 1 mg/ml Casein as substrate in reaction buffer of 20 mM HEPES pH 7.5, 10 mM MgCl2, 1 mM EGTA, 0.02% Brij, 0.02 mg/ml BSA, 0.1 mM Na3VO4, 2 mM DTT, 1% DMSO. […] Reactions were carried out at ambient temperature for 120 min, followed by spotting of the reactions onto P81 ion exchange filter paper (Whatman Inc., Picataway, N.J., USA). Unbound phosphate was removed by extensive washing of filters in 0.75% phosphoric acid. After subtraction of background derived from control reactions without enzyme activity, kinase activity data was expressed as the percent remaining kinase activity in test samples compared to vehicle (DMSO) reactions. IC50 values and curve fits were obtained using Prism (GraphPad Software).

[2] = target: T2, ALK1 (GST-modified kinase domain ACVRL1 (139-503)) (Homo sapiens, UniProt P37023); test: ALK1 kinase inhibition assay (33P-ATP filter binding, Reaction Biology); type: biochemical; settings: casein substrate, 100 μM ATP (Km ATP), 120 min ambient temperature
T2 construct: N-terminally GST-modified kinase domain ACVRL1 (139-503); GST (N)
T2 sequence (P37023 139-503): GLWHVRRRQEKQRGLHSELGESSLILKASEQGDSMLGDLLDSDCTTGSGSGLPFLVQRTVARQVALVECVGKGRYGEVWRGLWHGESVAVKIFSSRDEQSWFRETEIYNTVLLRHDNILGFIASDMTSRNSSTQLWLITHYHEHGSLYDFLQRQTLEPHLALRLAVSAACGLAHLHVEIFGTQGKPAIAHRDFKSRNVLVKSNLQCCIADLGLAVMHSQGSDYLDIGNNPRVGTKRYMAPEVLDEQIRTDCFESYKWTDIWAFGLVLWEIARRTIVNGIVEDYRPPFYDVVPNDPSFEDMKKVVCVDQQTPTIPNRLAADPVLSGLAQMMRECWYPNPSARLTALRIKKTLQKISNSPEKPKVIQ
Method: as §1
A1) ALK1 Kinase Inhibition Assay
as §2, with “performed” for “performed similar to procedure A1”, “domain ACVRL1 (139-503)” for “domain ACVR1(145-509)”, “and 20” for “and 1”

[3] = target: T3, ALK5 (TGFβR1; GST-modified TGFBR1 (200-503)) (Homo sapiens, UniProt P36897); test: ALK5 kinase inhibition assay (33P-ATP filter binding, Reaction Biology); type: biochemical; settings: casein substrate, 200 μM ATP
T3 construct: Using GST-Modified TGFBR1 (200-503); GST
T3 sequence (P36897 200-503): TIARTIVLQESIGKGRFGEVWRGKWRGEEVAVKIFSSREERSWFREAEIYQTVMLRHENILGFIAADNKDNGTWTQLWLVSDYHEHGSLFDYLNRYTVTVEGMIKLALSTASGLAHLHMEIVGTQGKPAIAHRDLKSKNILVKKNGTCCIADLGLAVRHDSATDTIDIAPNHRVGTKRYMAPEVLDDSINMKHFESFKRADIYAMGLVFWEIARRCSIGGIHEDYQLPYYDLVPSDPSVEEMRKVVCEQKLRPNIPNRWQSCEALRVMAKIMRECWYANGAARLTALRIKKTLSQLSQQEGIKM
Method: as §1
A3) ALK5 Kinase Inhibition Assay Was Performed Similar to Procedures A1 and A2 Using GST-Modified TGFBR1 (200-503) and 1 mg/ml Casein as Substrate at 200 μM ATP.

[4] = system: ALK1-mediated SMAD1/5 phosphorylation in HUVEC cells; test: Cell-based immunofluorescence assay for ALK1-mediated SMAD1/5 phosphorylation in HUVEC cells; settings: Homo sapiens, 1.5 ng/ml BMP-9 with compound for 2 h, % nuclei with pSMAD1/5 signal, read-out: Smad 1/5 IC50
How it was run: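 Serum-starved primary HUVEC (≤5 passages) were treated with compound (1 nM-30 μM, 10 doses, 0.5% DMSO) plus 1.5 ng/ml BMP-9 for 2 h at 37° C. Cells were then fixed and immunostained for phospho-Smad1/5 (Ser463/465), and % positive nuclei were counted by confocal imaging. Data were normalised to DMSO (0%) and 10 μM reference inhibitor (−100%).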

SMILES	IC50 [1] [nM]	IC50 [2] [nM]	IC50 [3] [nM]	IC50 [4] [nM]
O=c1[nH]cc(-c2cccc3[nH]ccc23)cc1-c1nc2cc(N3CCNCC3)ccc2[nH]1 [Compound A48, 5-(1H-Indol-4-yl)-3-(5-piperazin-1-yl-1H-benzimidazol-2-yl)-1H-pyridin-2-one]	22	17	1400	1000
O=c1[nH]cc(-c2cccc(CO)c2)cc1-c1nc2cc(N3CCOCC3)ccc2[nH]1 [Compound A1, 5-(3-Hydroxymethyl-phenyl)-3-(5-morpholin-4-yl-1H-benzimidazol-2-yl)-1H-pyridin-2-one]	94	39	3600	1300
O=c1[nH]cc(-c2cccc(CO)c2)cc1-c1nc2cc(N3CCCNCC3)ccc2[nH]1 [Compound A17, 3-(5-[1,4]Diazepan-1-yl-1H-benzimidazol-2-yl)-5-(3-hydroxymethyl-phenyl)-1H-pyridin-2-one]	25	27	3300	2500
NC1CCN(c2ccc3[nH]c(-c4cc(-c5cccc(CO)c5)c[nH]c4=O)nc3c2)CC1 [Compound A26, 3-[5-(4-Amino-piperidin-1-yl)-1H-benzimidazol-2-yl]-5-(3-hydroxymethyl-phenyl)-1H-pyridin-2-one dihydrochloride]	31	5	1900	1800
O=c1[nH]cc(-c2cc(CO)ccc2Cl)cc1-c1nc2cc(N3CCNCC3)ccc2[nH]1 [Compound A22, 5-(2-Chloro-5-hydroxymethyl-phenyl)-3-(5-piperazin-1-yl-1H-benzimidazol-2-yl)-1H-pyridin-2-one dihydrochloride]	16	3.5	2100	3300
CN1CCN(c2ccc3[nH]c(-c4cc(-c5cnc6[nH]ccc6c5)c[nH]c4=O)nc3c2)CC1 [Compound A51, 3-[6-(4-Methyl-piperazin-1-yl)-1H-benzimidazol-2-yl]-5-(1H-pyrrolo[2,3-b]-pyridin-5-yl)-1H-pyridin-2-one]	100	120	10000	5600
O=c1[nH]cc(-c2cccc(CO)c2)cc1-c1nc2cc(N3CCC(O)CC3)ccc2[nH]1 [Compound A12, 5-(3-Hydroxymethyl-phenyl)-3-[5-(4-hydroxy-piperidin-1-yl)-1H-benzimidazol-2-yl]-1H-pyridin-2-one]	57	28	4100	7200
CN1CCN(c2ccc3[nH]c(-c4cc(-c5ccnc6ccccc56)c[nH]c4=O)nc3c2)CC1 [Compound A29, 3-[5-(4-Methyl-piperazin-1-yl)-1H-benzimidazol-2-yl]-5-quinolin-4-yl-1H-pyridin-2-one]	63	92	1700	3700
CN1CCC(Oc2ccc3[nH]c(-c4cc(-c5ccnc6ccccc56)c[nH]c4=O)nc3c2)CC1 [Compound A59, 3-[6-(1-Methyl-piperidin-4-yloxy)-1H-benzimidazol-2-yl]-5-quinolin-4-yl-1H-pyridin-2-one]	80	170	2500	12000
CN1CCCN(c2ccc3[nH]c(-c4cc(-c5ccnc6[nH]ccc56)c[nH]c4=O)nc3c2)CC1 [Compound A49, 3-[5-(4-Methyl-[1,4]diazepan-1-yl)-1H-benzimidazol-2-yl]-5-(1H-pyrrolo-[2,3-b]pyridin-4-yl)-1H-pyridin-2-one]	26	1.4	280	3700

Now those with a lower IC50 [1], led by results:

IC50 [1] [nM]	IC50 [2] [nM]	IC50 [3] [nM]	SMILES	IC50 [4] [nM]
12	13	1700	CN1CCN(c2ccc3[nH]c(-c4cc(-c5cccc(CO)c5)c[nH]c4=O)nc3c2)CC1 [Compound A27, 5-(3-Hydroxymethyl-phenyl)-3-[5-(4-methyl-piperazin-1-yl)-1H-benzimidazol-2-yl]-1H-pyridin-2-one]	450
11	16	3200	CN1CCN(c2ccc3[nH]c(-c4cc(-c5ccc(CO)cc5)c[nH]c4=O)nc3c2)CC1 [Compound A35, 5-(4-Hydroxymethyl-phenyl)-3-[5-(4-methyl-piperazin-1-yl)-1H-benzimidazol-2-yl]-1H-pyridin-2-one]	720
11	14	1900	CN1CCCN(c2ccc3[nH]c(-c4cc(-c5cccc(CO)c5)c[nH]c4=O)nc3c2)CC1 [Compound A33, 5-(3-Hydroxymethyl-phenyl)-3-[5-(4-methyl-[1,4]diazepan-1-yl)-1H-benzimidazol-2-yl]-1H-pyridin-2-one]	900
7	10	430	O=c1[nH]cc(-c2ccnc3[nH]ccc23)cc1-c1nc2cc(N3CCOCC3)ccc2[nH]1 [Compound A41, 3-(5-Morpholin-4-yl-1H-benzimidazol-2-yl)-5-(1H-pyrrolo[2,3-b]pyridin-4-yl)-1H-pyridin-2-one]	190
5	2	170	CN1CCN(c2ccc3[nH]c(-c4cc(-c5ccnc6[nH]ccc56)c[nH]c4=O)nc3c2)CC1 [Compound A50, 3-[6-(4-Methyl-piperazin-1-yl)-1H-benzimidazol-2-yl]-5-(1H-pyrrolo-[2,3-b]pyridin-4-yl)-1H-pyridin-2-one]	400
1	1	970	O=c1[nH]cc(-c2cccc(CO)c2)cc1-c1nc2cc(N3CCNCC3)ccc2[nH]1 [Compound A13, 5-(3-Hydroxymethyl-phenyl)-3-(5-piperazin-1-yl-1H-benzimidazol-2-yl)-1H-pyridin-2-one dihydrochloride]	400
